# Strand notation (5' to 3'): a small letter for the sugar, then the base; units joined by * are phosphorothioate-linked, units joined directly phosphodiester-linked; [ ] holds rarer units or linkages, { } end groups; capitals alone tell only the bases. k = constrained ethyl (cEt); [5mC] = 5-methylcytosine; d = 2'-deoxy (DNA)
# How the values were obtained:
# [1] = tested on: Yap1 mRNA; assay: Antisense inhibition of human Yap1 in A-431 cells by cEt gapmers, single dose (Example 1, RTS4814); assay type: cell-based
# Procedure: Modified oligonucleotides were designed to target a Yap1 nucleic acid and were tested for their effect on Yap1 mRNA level in vitro. The modified oligonucleotides were tested in a series of experiments that had similar culture conditions. Cultured A-431 cells at a density of 5,000 cells per well were treated using free uptake with 2,000 nM of modified oligonucleotide. After a treatment period of approximately 48 hours, RNA was isolated from the cells and Yap1 mRNA levels were measured by quantitative real-time RTPCR. Human primer probe set RTS4814 (forward sequence […], designated herein as SEQ ID NO.: 11; reverse sequence […], designated herein as SEQ ID NO.: 12; probe sequence […], designated herein as SEQ ID NO.: 13) was used to measure mRNA levels. Yap1 mRNA levels were normalized to total RNA content, as measured by RIBOGREEN®. Results are presented in the tables below as percent control of the amount of Yap1 mRNA relative to untreated control cells (% UTC). The modified oligonucleotides with percent control values marked with an asterisk (*) target the amplicon region of the primer probe set. Additional assays may be used to measure the potency and efficacy of the modified oligonucleotides targeting the amplicon region.
# The newly designed modified oligonucleotides in the Tables below were designed as 3-10-3 cEt gapmers. The gapmers are 16 nucleosides in length, wherein the central gap segment comprises of ten 2′-deoxynucleosides and is flanked by wing segments on the 5′ direction and the 3′ direction comprising three nucleosides each. Each nucleoside in the 5′ wing segment and each nucleoside in the 3′ wing segment has a cEt sugar modification. The internucleoside linkages throughout each gapmer are phosphorothioate (P═S) linkages. All cytosine residues throughout each gapmer are 5-methylcytosines.
# “Start site” indicates the 5′-most nucleoside to which the gapmer is targeted in the human gene sequence. “Stop site” indicates the 3′-most nucleoside to which the gapmer is targeted human gene sequence. […] Activity of the modified oligonucleotide may be defined in a different experiment.
# [2] = tested on: Yap1 mRNA; assay: Dose-dependent inhibition of human Yap1 in A-431 cells (Example 6, 5,000 cells per well, RTS4814); assay type: cell-based; settings: for % UTC 148 nM / % UTC 444 nM / % UTC 1333 nM / % UTC 4000 nM: approximately 48 hours; for Yap1 mRNA, % UTC: 48 hours
# Procedure: Modified oligonucleotides described in the studies above were tested at various doses in A-431 cells. Cultured A-431 cells at a density of 5,000 cells per well were treated using free uptake with modified oligonucleotides diluted to concentrations described in the tables below. After approximately 48 hours, Yap1 mRNA levels were measured as previously described using the Human Yap1 primer-probe set RTS4814. Yap1 mRNA levels were normalized to total RNA content, as measured by RIBOGREEN®. Results are presented in the tables below as percent control of the amount of Yap1 mRNA relative to untreated control cells (% UTC). IC50s were calculated using a linear regression on a log/linear plot of the data in excel.
# [3] = Table 2, A-431 cells, free uptake, 2,000 nM, approximately 48 hours, RTS4814, Yap1 mRNA relative to untreated control cells
# [4] = A-431 cells, 5,000 cells per well, free uptake, 2,000 nM modified oligonucleotide, approx. 48 hours, RTS4814, normalized to RIBOGREEN, Table 3
# [5] = Table 1, A-431 cells, free uptake, 2,000 nM, approximately 48 hours, RTS4814, Yap1 mRNA relative to untreated control cells
# [6] = Table 53, A-431 cells, Yap1 mRNA, linear regression on a log/linear plot
# [7] = Table 53, A-431 cells, free uptake, 148 nM, RTS4814
# [8] = Table 53, A-431 cells, free uptake, 444 nM, RTS4814
# [9] = Table 53, A-431 cells, free uptake, 1333 nM, RTS4814
# [10] = Table 53, A-431 cells, free uptake, 4000 nM, RTS4814
substance,measurement,setting,value
715632 (antisense kA*kT*k[5mC]*d[5mC]*dA*dA*dT*dT*dA*dT*dG*dT*d[5mC]*k[5mC]*k[5mC]*kA) [Compound 715632],YAP1 (% UTC),[1]; [3],109 % UTC
715486 (antisense kT*kA*k[5mC]*dT*dT*d[5mC]*dA*dT*dA*dG*d[5mC]*dT*dT*kA*kT*kA) [Compound 715486],YAP1 (% UTC),[1]; [4],27 % UTC
715495 (antisense kA*k[5mC]*kA*dG*dA*dG*dG*dT*dG*d[5mC]*dT*dA*dG*k[5mC]*kT*kG) [Compound 715495],YAP1 (% UTC),[1]; [4],80 % UTC
715410 (kA*kT*k[5mC]*dA*dG*dT*dA*d[5mC]*dT*dG*dG*d[5mC]*d[5mC]*kT*kG*kT; antisense) [Compound 715410],YAP1 (% UTC),[1]; [3],61 % UTC
715533 (k[5mC]*k[5mC]*kT*dA*dA*d[5mC]*dA*dA*d[5mC]*d[5mC]*dT*dG*dG*kT*kT*kT; antisense) [Compound 715533],YAP1 (% UTC),[1]; [3],97 % UTC
715467 (antisense k[5mC]*kA*kT*d[5mC]*dT*d[5mC]*d[5mC]*dT*dT*d[5mC]*d[5mC]*dA*dG*kT*kG*kT) [Compound 715467],YAP1 (% UTC),[1]; [3],77 % UTC
715584 (kG*kG*kT*d[5mC]*dT*dG*dG*dA*dA*d[5mC]*dA*dG*dA*kT*kT*kA; antisense) [Compound 715584],YAP1 (% UTC),[1]; [3],96 % UTC
715515 (kT*kA*kT*dG*dA*dG*dT*d[5mC]*dA*dA*d[5mC]*d[5mC]*dT*kG*k[5mC]*kA; antisense) [Compound 715515],YAP1 (% UTC),[1]; [3],94 % UTC
715626 (antisense kA*k[5mC]*k[5mC]*dT*dG*dA*d[5mC]*dA*dT*dT*dT*dT*dG*kG*kA*kG) [Compound 715626],YAP1 (% UTC),[1]; [3],64 % UTC
715541 (k[5mC]*kT*kT*dG*dA*dA*dG*dA*dA*d[5mC]*dT*dA*dT*kT*kT*k[5mC]; antisense) [Compound 715541],YAP1 (% UTC),[1]; [5],105 % UTC
715538 (k[5mC]*kT*kT*dT*dG*dT*dA*dA*d[5mC]*dT*dT*dA*dA*kA*kA*kG; antisense) [Compound 715538],YAP1 (% UTC),[1]; [5],110 % UTC
715532 (kT*kA*kA*d[5mC]*dA*dA*d[5mC]*d[5mC]*dT*dG*dG*dT*dT*kT*kG*kT; antisense) [Compound 715532],YAP1 (% UTC),[1]; [5],91 % UTC
715600 (antisense kA*kA*kT*dT*d[5mC]*d[5mC]*d[5mC]*dA*dA*dG*d[5mC]*dT*dA*k[5mC]*k[5mC]*k[5mC]) [Compound 715600],YAP1 (% UTC),[1]; [4],82 % UTC
715542 (kT*kA*k[5mC]*dT*dT*dG*dA*dA*dG*dA*dA*d[5mC]*dT*kA*kT*kT; antisense) [Compound 715542],YAP1 (% UTC),[1]; [3],120 % UTC
715520 (kT*kT*k[5mC]*dT*dT*dT*d[5mC]*d[5mC]*dA*d[5mC]*dT*d[5mC]*dA*kA*kG*kT; antisense) [Compound 715520],YAP1 (% UTC),[1]; [5],122 % UTC
715480 (antisense kG*kG*kA*dA*dA*d[5mC]*d[5mC]*dA*dT*dT*dA*dT*dT*kA*k[5mC]*kT) [Compound 715480],YAP1 (% UTC),[1]; [4],23 % UTC
715633 (kG*kT*kG*dA*dT*dA*dG*dG*dT*dG*d[5mC]*d[5mC]*dA*k[5mC]*kT*kA; antisense) [Compound 715633],YAP1 (% UTC),[1]; [4],78 % UTC
715434 (antisense kT*k[5mC]*kT*dT*dG*dT*dT*d[5mC]*dT*dT*dA*dT*dG*kG*kT*kT) [Compound 715434],YAP1 (% UTC),[1]; [3],31 % UTC
715477 (antisense kA*kG*kA*d[5mC]*dA*d[5mC]*dA*dT*dA*d[5mC]*dT*d[5mC]*dT*kA*kG*kT) [Compound 715477],YAP1 (% UTC),[1]; [4],61 % UTC
715577 (kG*k[5mC]*kA*dT*dT*d[5mC]*dA*d[5mC]*dA*dG*dA*dG*dT*kT*kA*kA; antisense) [Compound 715577],YAP1 (% UTC),[1]; [5],21 % UTC
715502 (antisense k[5mC]*k[5mC]*kA*dG*dA*d[5mC]*dT*dT*dA*dA*dT*dT*d[5mC]*kA*kA*kG) [Compound 715502],YAP1 (% UTC),[1]; [5],91 % UTC
715526 (kA*k[5mC]*kT*dT*dA*d[5mC]*dT*dT*dT*dA*dA*dG*dA*kA*kG*kT; antisense) [Compound 715526],YAP1 (% UTC),[1]; [5],112 % UTC
715503 (antisense k[5mC]*k[5mC]*k[5mC]*d[5mC]*dA*dG*dA*d[5mC]*dT*dT*dA*dA*dT*kT*k[5mC]*kA) [Compound 715503],YAP1 (% UTC),[1]; [3],136 % UTC
715437 (antisense k[5mC]*kA*kT*dG*dG*d[5mC]*dA*dA*dA*dA*d[5mC]*dG*dA*kG*kG*kG) [Compound 715437],YAP1 (% UTC),[1]; [3],89 % UTC
715602 (antisense kA*k[5mC]*kA*dG*dA*dA*dT*dT*d[5mC]*d[5mC]*d[5mC]*dA*dA*kG*k[5mC]*kT) [Compound 715602],YAP1 (% UTC),[1]; [3],110 % UTC
715428 (kT*k[5mC]*k[5mC]*d[5mC]*dA*dT*d[5mC]*d[5mC]*dA*dT*d[5mC]*dA*dG*kG*kA*kA; antisense) [Compound 715428],YAP1 (% UTC),[1]; [3],106 % UTC
715590 (kT*kT*kG*dG*d[5mC]*dA*dG*dA*dG*dA*dT*dA*dA*kA*kA*k[5mC]; antisense) [Compound 715590],YAP1 (% UTC),[1]; [3],84 % UTC
715461 (antisense kT*k[5mC]*kA*dT*d[5mC]*dT*d[5mC]*dG*dA*dG*dA*dG*dT*kG*kA*kT) [Compound 715461],YAP1 (% UTC),[1]; [3],153 % UTC
715510 (kA*kT*kT*dT*dG*d[5mC]*dT*dG*dT*dG*d[5mC]*dT*dG*kG*kG*kA; antisense) [compound 715510],IC50,[2]; [6],2.4 µM
same,% UTC 148 nM,[2]; [7],88 % UTC
same,% UTC 444 nM,[2]; [8],67 % UTC
same,% UTC 1333 nM,[2]; [9],59 % UTC
same,% UTC 4000 nM,[2]; [10],45 % UTC
715501 (kA*kA*kA*dA*dG*d[5mC]*d[5mC]*dT*dT*dA*dG*dA*dG*kT*k[5mC]*kA; antisense) [compound 715501],IC50,[2]; [6],> 4 µM
same,% UTC 148 nM,[2]; [7],82 % UTC
same,% UTC 444 nM,[2]; [8],82 % UTC
same,% UTC 1333 nM,[2]; [9],68 % UTC
same,% UTC 4000 nM,[2]; [10],56 % UTC
715435 (kG*kG*kT*d[5mC]*dT*dT*dG*dT*dT*d[5mC]*dT*dT*dA*kT*kG*kG; antisense) [compound 715435],IC50,"[2]; Table 54, A-431 cells, Yap1 mRNA, linear regression on a log/linear plot",3.4 µM
same,% UTC 148 nM,"[2]; Table 54, A-431 cells, free uptake, 148 nM, RTS4814",80 % UTC
same,% UTC 444 nM,"[2]; Table 54, A-431 cells, free uptake, 444 nM, RTS4814",67 % UTC
same,% UTC 1333 nM,"[2]; Table 54, A-431 cells, free uptake, 1333 nM, RTS4814",61 % UTC
same,% UTC 4000 nM,"[2]; Table 54, A-431 cells, free uptake, 4000 nM, RTS4814",48 % UTC
715490 (k[5mC]*k[5mC]*kA*dA*d[5mC]*dT*dA*dT*dT*dA*d[5mC]*dT*dT*k[5mC]*kA*kT; antisense) [compound 715490],IC50,[2]; [6],4.1 µM
same,% UTC 148 nM,[2]; [7],98 % UTC
same,% UTC 444 nM,[2]; [8],89 % UTC
same,% UTC 1333 nM,[2]; [9],76 % UTC
same,% UTC 4000 nM,[2]; [10],43 % UTC
716381 (kT*kG*kT*d[5mC]*dT*dG*dA*dT*d[5mC]*dG*dA*dT*dG*kT*kG*kA; antisense) [compound 716381],"Yap1 mRNA, % UTC","[2]; Table 55, 148 nM, free uptake, A-431 cells 5,000 cells per well, RTS4814",106 % UTC
same,"Yap1 mRNA, % UTC","[2]; Table 55, 444 nM, free uptake, A-431 cells 5,000 cells per well, RTS4814",90 % UTC
same,"Yap1 mRNA, % UTC","[2]; Table 55, 1333 nM, free uptake, A-431 cells 5,000 cells per well, RTS4814",80 % UTC
same,"Yap1 mRNA, % UTC","[2]; Table 55, 4000 nM, free uptake, A-431 cells 5,000 cells per well, RTS4814",44 % UTC
same,IC50,"[2]; Table 55, A-431 cells 5,000 cells per well, free uptake, RTS4814",4.2 µM
715479 (kA*kA*kA*d[5mC]*d[5mC]*dA*dT*dT*dA*dT*dT*dA*d[5mC]*kT*k[5mC]*k[5mC]; antisense) [compound 715479],IC50,[2]; [6],> 4 µM
same,% UTC 148 nM,[2]; [7],98 % UTC
same,% UTC 444 nM,[2]; [8],80 % UTC
same,% UTC 1333 nM,[2]; [9],77 % UTC
same,% UTC 4000 nM,[2]; [10],64 % UTC

# Source: patent US11214803B2, “Modulators of YAP1 expression” (Ionis Pharmaceuticals, Inc., priority 2019, dated 2022)
